Test results as given in article PMC5130005, “Indolin-2-one compounds targeting thioredoxin reductase as potential anticancer drug leads” (Oncotarget, 2016).

Columns and labels:
[1] = target: T1, TrxR in Keap1-null (Keap1−/−) MEFs (Mus musculus, UniProt Q9JMH6); assay: TrxR activity in Keap1-null MEF lysates; assay type: cell-based; settings: 5 h treatment, 20 to 40 μM
T1 sequence (Q9JMH6 115-613 limits assumed): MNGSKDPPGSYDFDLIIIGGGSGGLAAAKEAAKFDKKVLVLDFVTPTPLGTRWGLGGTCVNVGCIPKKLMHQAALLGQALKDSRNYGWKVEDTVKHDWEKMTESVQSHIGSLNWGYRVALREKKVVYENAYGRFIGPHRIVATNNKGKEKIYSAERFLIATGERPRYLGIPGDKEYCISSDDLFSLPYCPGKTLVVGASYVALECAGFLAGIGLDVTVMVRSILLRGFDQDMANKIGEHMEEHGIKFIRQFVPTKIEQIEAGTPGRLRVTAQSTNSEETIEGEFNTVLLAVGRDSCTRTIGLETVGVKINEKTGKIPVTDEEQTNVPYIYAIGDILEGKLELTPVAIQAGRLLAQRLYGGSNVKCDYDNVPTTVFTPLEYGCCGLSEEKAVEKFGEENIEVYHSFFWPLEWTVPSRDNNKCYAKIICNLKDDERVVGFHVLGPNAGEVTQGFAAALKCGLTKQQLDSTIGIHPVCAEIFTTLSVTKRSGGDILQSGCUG
Protocol: Cells were seeded onto 100 mm or 60 mm culture plates and upon reaching ~70% confluency, they were subjected to drug treatment for indicated durations. Pellets of compound-treated or DMSO control cells comprising both attached and floating cells were collected and lysed in lysis buffer (25 mM Tris-HCl pH 7.5, 100 mM NaCl, 2.5 mM EDTA, 2.5 mM EGTA, 20 mM NaF, 1 mM Na3VO4, 20 mM sodium β-glycerophosphate, 10 mM sodium pyrophosphate, 0.5% Triton X-100) with freshly added protease inhibitor cocktail (Roche Diagnostics). Prior to being used in Western blot analysis and/or cellular TrxR, GR, Trx and GPx activity determination, lysates were precleared by centrifugation and protein concentrations were determined using a modified Bradford assay (Bio-Rad Laboratories) as described in the manufacturer's manual. This procedure for collecting whole cell lysate was used for all experiments except for the Trx-redox state determination experiment. […]
Freshly collected cell lysates were used for measurement of activity of cellular Trx and TrxR. […] The amount of free thiols generated from insulin reduction was determined by DTNB reduction at 412 nm using the VersaMax microplate reader. […] For each sample, Trx or TrxR activity was calculated as the absorbance at 412 nm subtracted from that of the corresponding control and expressed as a percentage of the activity measured in DMSO-treated cells.

Trx in HCT 116 cells = assay: Trx redox state in cells (IAA alkylation, native PAGE); assay type: cell-based, human; settings: 40 μM; 4, 8 and 14 h
Protocol: The redox state of cellular Trx was assessed as previously described. HCT 116 cells were seeded in 60 mm plates and allowed to grow to 70% confluency. Compounds 4 or 5 were then added to the cells for 4, 8 or 14 h. Lysates were collected in lysis buffer (50 mM Tris-HCl pH 8.3, 2 mM EDTA, 6 M guanidine HCl, 0.5% Triton-X, 50 mM IAA). The lysates were incubated in the dark for 30 min at room temperature, sonicated briefly, and finally passed through a MicroSpin G-25 column (GE Healthcare) to remove guanidine and unreacted IAA. The desalted lysates were subjected to native PAGE, followed by transfer of separated proteins onto nitrocellulose membranes for Western blot analysis using anti-Trx antibody.

HCT 116 cells [2] = assay: ROS determination (carboxy-H2DCFDA, DCF fluorescence); assay type: cell-based, human; settings: 50 μM, 3 h, versus DMSO control
Protocol: Oxidative stress was assessed through estimating the level of ROS using the H2DCFDA assay with modifications. Briefly, HCT 116 cells were seeded in 6-well plates and incubated for 24-48 h at 37°C till 70-80% confluency. They were treated with H2O2 (200 μM) or compounds 4 and 5 (20, 30, 40 or 50 μM) for 3 h. Following treatment, cells were washed with PBS and incubated with 10 μM carboxy-H2DCFDA in PBS at 37°C in the dark for 45 min to allow reaction between taken up H2DCF and ROS. The cells were collected, washed with cold PBS, pelleted, resuspended in 200 μl of PBS and transferred to wells in a 96-well black fluorescence plate. The fluorescence intensities were measured at an excitation wavelength of 485 nm and an emission wavelength of 530 nm using a Tecan Infinite M200 Pro microplate reader. The results were expressed as a percentage of fluorescence intensities measured in drug-treated cells over those produced in DMSO-treated cells.

HCT 116 cells [3] = assay: total cellular thiols; assay type: cell-based, human; settings: 20-50 μM
[4] = test system: Trx-ASK1 complex in ASK1-overexpressing HCT 116 cells; assay: Trx-ASK1 interaction by Trx immunoprecipitation; assay type: cell-based, human
Protocol: HCT 116 cells were seeded in 60 mm plates and upon reaching 40% confluency, they were transfected with 1.5 μg of pCMV-SPORT6-ASK1 per plate. When the transfected cells reached ~70% confluency, they were treated with DMSO or compound 4 at indicated concentrations for 4 h and lysates were collected for immunoprecipitation set-up. For each lysate sample, a volume containing 1 mg of protein was mixed with 1.5 μg of anti-Trx antibody coupled to 20 μl of protein G-sepharose (GE Healthcare) and tumbled at 4°C for 2 h. The G-sepharose beads were washed three times in a cold washing buffer containing 20 mM Tris (pH 7.5), 0.5 M NaCl and 1 mM EGTA and once in a buffer containing 50 mM Tris (pH 7.5). The immunoprecipitated proteins were denatured in SDS sample buffer containing 5% β-mercaptoethanol and subjected to SDS-PAGE and Western blotting.

HCT 116 cells [5] = assay: apoptosis induction by Western blot of cleaved caspase 3 and PARP; assay type: cell-based, human; settings: 10 h
Protocol: Cells were seeded onto 100 mm or 60 mm culture plates and upon reaching ~70% confluency, they were subjected to drug treatment for indicated durations. Pellets of compound-treated or DMSO control cells comprising both attached and floating cells were collected and lysed in lysis buffer (25 mM Tris-HCl pH 7.5, 100 mM NaCl, 2.5 mM EDTA, 2.5 mM EGTA, 20 mM NaF, 1 mM Na3VO4, 20 mM sodium β-glycerophosphate, 10 mM sodium pyrophosphate, 0.5% Triton X-100) with freshly added protease inhibitor cocktail (Roche Diagnostics). Prior to being used in Western blot analysis and/or cellular TrxR, GR, Trx and GPx activity determination, lysates were precleared by centrifugation and protein concentrations were determined using a modified Bradford assay (Bio-Rad Laboratories) as described in the manufacturer's manual. This procedure for collecting whole cell lysate was used for all experiments except for the Trx-redox state determination experiment. Equal amounts of protein (50 μg) in each lysate sample were separated by SDS-PAGE, followed by electroblotting onto nitrocellulose membranes. Electroblotted proteins on membranes were probed with a primary antibody and subsequently by a secondary antibody conjugated to HRP.

Structure (SMILES)	TrxR activity in Keap1−/− MEFs [1]	Trx oxidation in HCT 116 cells (Trx in HCT 116 cells)	DCF fluorescence (cellular oxidative stress) (HCT 116 cells [2])	total cellular thiols (HCT 116 cells [3])	amount of ASK1 bound to Trx1 [4]	apoptosis induction (cleaved caspase 3 and PARP) (HCT 116 cells [5])
CCCCN1C(=O)/C(=C/C(C)=O)c2ccccc21 [Compound 4]	elevated TrxR activity	time-dependent oxidation of Trx	markedly increased DCF fluorescence	depletion of total cellular thiols in a dose-dependent manner	dose-dependent decrease	Dose-dependent induction of apoptosis
CC(=O)/C=C1/C(=O)N(Cc2ccccc2)c2ccccc21 [Compound 5]	elevated TrxR activity	time-dependent oxidation of Trx	markedly increased DCF fluorescence	depletion of total cellular thiols in a dose-dependent manner		Dose-dependent induction of apoptosis
